The values that follow come from US6066649A, “Drug for cardiovascular diseases” (Podzuweit; Thomas, priority 1992, dated 2000).

Read-outs that look alike come from different tables or passages of the source.

Data set [1] concerns cGMP-stimulated PDE II. In words: Test for PDE activity, inhibition of cytosolic cGMP-stimulated PDE II from human myocardium. In kind it is biochemical. Particulars: cGMP 1 μM; in words; swine and human myocardium. The source says:
(§1) Samples of the left ventricular papillary muscles were obtained with the consent of patient who underwent an exchange of a mitral flap in the Universitats-Krankenhaus Gieβen, FRG. The myocardium samples of pigs (male pigs of the German breed of swine, 25 to 30 kg body weight) were obtained following excision of the hearts under Nembutal anesthesia. The samples were immediately frozen in liquid nitrogen and were then pulverized in a high speed mill and pre-cooled in liquid nitrogen. […] All of the following steps were conducted at 4° C. The homogenate was centrifuged at 48,000 g for 30 minutes. […] The column was washed with 200 ml of buffer; and the PDE activities were eluted with a linear gradient ranging from 0.05 to 1 M of sodium acetate in buffer (flow time of the gradient: 500 minutes). The flow rate was 1 ml/min. 5 ml fractions were obtained and tested for PDE activity.
(§2) The PDE activity was measured with an off line liquid scintillation spectrometry using HPLC. […] The enzyme activity was measured at 25° C. with 10 minute incubations. The reaction was started with the addition of 50 μl of enzyme solution and terminated through injection of 20 μl of 60% perchloric acid. Aliquots of 20 μl of acidic supernatant were siphoned off and injected into an automated HPLC system (column LiChrospher RP-18e) (250×4 mm; 5 μm packing).
(§3) The data were fitted with four parameters with the aid of the sigmoidal logistic function.
(§4) The soluble PDE isoenzymes from swine and human myocardium were severed by means of anion exchange chromatography using DEAE-sepharose CL-6B. The enzyme activities were called PDE I to IV according to the nomenclature of J. A. Beavo and D. H. Reifsnyder. The PDE II activity was stimulated by means of cGMP (1 μM).

The target of data set [2] is adenosine deaminase. Particulars: cited from earlier work; for inhibition of adenosine deaminase: in words.
Another data set deals with human ADA. As to conditions: read-out: K1 value for human ADA; racemic (±)-EHNA; cited from earlier work.
For data set [3], the system named is other cyclic nucleotide phosphodiesterases. In words: Test for PDE activity, inhibition of the other cyclic nucleotide phosphodiesterases from swine myocardium. In kind it is biochemical. As to conditions: 1 μM cAMP or cGMP substrate, 25° C., pH 7.5. The source says: (§5) Samples of the left ventricular papillary muscles were obtained with the consent of patient who underwent an exchange of a mitral flap in the Universitats-Krankenhaus Gieβen, FRG. The myocardium samples of pigs (male pigs of the German breed of swine, 25 to 30 kg body weight) were obtained following excision of the hearts under Nembutal anesthesia. The samples were immediately frozen in liquid nitrogen and were then pulverized in a high speed mill and pre-cooled in liquid nitrogen. The frozen tissue powder was sieved through a screen made of stainless steel (-196° C.) (mesh size: 0.315 mm) in an homogenizing buffer (4° C.) (1 ml per 100 mg of powder), comprising (final concentrations): 20 mM of bis-tris, 2 mM of EDTA, 5 mM of 2-mercaptoethanol, 2 mM of benzamidine, 50 μM of phenylmethylsulfonylfluoride, 50 mM of sodium acetate, pH 6.5. All of the following steps were conducted at 4° C. The homogenate was centrifuged at 48,000 g for 30 minutes. […]
(§6) The PDE activity was measured with an off line liquid scintillation spectrometry using HPLC. […] The enzyme activity was measured at 25° C. with 10 minute incubations. […]
(§7) The radioactive substrates and the products of the PDE reaction were determined quantitatively using a RACKBETA 1219 liquid scintillation counter (LKB Wallac, Freiburg, FRG). […]

For data set [4], the system named is adenosine deaminase. Particulars: ADA and cGMP-stimulated PDE.
Data set [5] addresses T1, cGMP-stimulated PDE II (Homo sapiens, UniProt O00408).
T1 construct: cytosolic cGMP-stimulated PDE II isoenzyme from human myocardium; from tissue; host or cells: human left ventricular papillary muscle, soluble extract, DEAE-Sepharose CL-6B peak fraction
Briefly: Test for PDE activity, inhibition of cytosolic cGMP-stimulated PDE II from human myocardium. In kind it is biochemical.
From the text: as §1, §2, §3, §4

For the next data set, the system named is ADA. As to conditions: in words; cited from earlier work.
For data set [6], the target named is T2, cGMP-stimulated PDE II (Sus scrofa, UniProt F1SUV3).
T2 construct: soluble cGMP-stimulated PDE II from swine myocardium; from tissue; host or cells: myocardium of male German breed swine, soluble extract, DEAE-Sepharose CL-6B peak fraction
T2 sequence (F1SUV3 1-945): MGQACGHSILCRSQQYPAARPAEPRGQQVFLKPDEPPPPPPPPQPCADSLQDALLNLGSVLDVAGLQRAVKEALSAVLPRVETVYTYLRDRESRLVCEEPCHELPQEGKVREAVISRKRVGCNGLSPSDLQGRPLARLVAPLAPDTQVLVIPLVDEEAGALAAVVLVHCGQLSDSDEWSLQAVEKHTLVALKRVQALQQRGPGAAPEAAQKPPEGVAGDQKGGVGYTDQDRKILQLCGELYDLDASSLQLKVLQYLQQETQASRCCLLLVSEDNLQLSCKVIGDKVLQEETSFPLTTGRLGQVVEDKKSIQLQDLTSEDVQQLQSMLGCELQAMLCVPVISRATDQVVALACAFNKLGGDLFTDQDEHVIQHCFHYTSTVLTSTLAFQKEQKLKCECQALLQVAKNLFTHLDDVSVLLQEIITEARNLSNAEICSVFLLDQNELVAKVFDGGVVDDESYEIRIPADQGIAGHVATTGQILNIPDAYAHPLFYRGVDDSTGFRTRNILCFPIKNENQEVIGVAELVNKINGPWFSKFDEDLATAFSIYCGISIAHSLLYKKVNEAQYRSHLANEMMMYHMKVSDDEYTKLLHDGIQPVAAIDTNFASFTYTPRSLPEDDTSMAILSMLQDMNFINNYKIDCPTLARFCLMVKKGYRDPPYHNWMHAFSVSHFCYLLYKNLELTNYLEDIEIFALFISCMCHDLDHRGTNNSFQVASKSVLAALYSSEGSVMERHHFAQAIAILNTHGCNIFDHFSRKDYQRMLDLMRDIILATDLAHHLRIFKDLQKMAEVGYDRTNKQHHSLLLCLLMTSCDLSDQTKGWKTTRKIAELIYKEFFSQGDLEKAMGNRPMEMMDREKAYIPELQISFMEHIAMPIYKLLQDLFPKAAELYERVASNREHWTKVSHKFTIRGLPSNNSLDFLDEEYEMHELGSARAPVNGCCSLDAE
Briefly: Test for PDE activity, inhibition of soluble cGMP-stimulated PDE II from swine myocardium. In kind it is biochemical. Particulars: 1 μM cAMP or cGMP substrate, 25° C., pH 7.5.
From the text: as §5, §6, §7

The conditions of data set [7]: cited from earlier work.
The subject of another data set is PDE I. Briefly: Test for PDE activity, inhibition of soluble PDE I from human myocardium. Particulars: 1 μM cAMP or cGMP substrate, 25° C., pH 7.5. In kind it is biochemical.
From the text: as §5, §6, §7

Another data set has as its system arrhythmias. In words: Antiarrhythmic action. Particulars: in words; no test data given.
The subject of data set [8] is cGMP content of the rat aorta. As to conditions: as a function of the dose; cited from earlier work.
For the next data set, the system named is mouse, rat and rabbit. As to conditions: cited from earlier work.

T1 sequence (O00408 1-920 isoform O00408-2): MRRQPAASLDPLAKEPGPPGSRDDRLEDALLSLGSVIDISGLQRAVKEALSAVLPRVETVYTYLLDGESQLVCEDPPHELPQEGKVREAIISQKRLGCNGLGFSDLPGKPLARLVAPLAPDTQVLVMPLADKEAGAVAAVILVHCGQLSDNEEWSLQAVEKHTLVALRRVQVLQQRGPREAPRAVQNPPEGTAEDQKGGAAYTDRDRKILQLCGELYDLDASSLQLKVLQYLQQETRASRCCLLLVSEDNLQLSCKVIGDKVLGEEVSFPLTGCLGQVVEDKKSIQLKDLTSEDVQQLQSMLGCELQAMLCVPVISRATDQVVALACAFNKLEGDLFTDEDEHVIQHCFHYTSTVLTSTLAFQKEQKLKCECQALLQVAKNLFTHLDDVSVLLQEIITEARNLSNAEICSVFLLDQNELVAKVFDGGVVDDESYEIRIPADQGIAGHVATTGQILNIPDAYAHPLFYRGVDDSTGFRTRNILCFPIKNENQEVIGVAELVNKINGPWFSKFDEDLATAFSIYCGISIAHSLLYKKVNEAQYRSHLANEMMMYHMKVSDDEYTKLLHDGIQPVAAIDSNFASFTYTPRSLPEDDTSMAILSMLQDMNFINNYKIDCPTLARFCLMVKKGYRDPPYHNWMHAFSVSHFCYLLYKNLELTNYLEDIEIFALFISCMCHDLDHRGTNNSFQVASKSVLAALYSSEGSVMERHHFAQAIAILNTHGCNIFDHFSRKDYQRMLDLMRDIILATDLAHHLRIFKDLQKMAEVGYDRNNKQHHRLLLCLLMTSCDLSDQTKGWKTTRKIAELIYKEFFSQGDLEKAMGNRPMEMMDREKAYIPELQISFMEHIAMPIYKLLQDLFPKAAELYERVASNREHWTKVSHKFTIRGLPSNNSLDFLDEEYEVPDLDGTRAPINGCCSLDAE

As to `Nc1nc2c(ncn2[C@@H]2O[C@@H]3COP(=O)(O)O[C@H]3[C@H]2O)c(=O)[nH]1` [cGMP], the “effect of cGMP on PDE II activity” value in the data set on cGMP-stimulated PDE II [1] is listed as “stimulated”.
Consider `CCCCCC[C@H]([C@H](C)O)n1cnc2c(N)ncnc21` (relative stereo) [EHNA, erythro-9-(2-hydroxy-3-nonyl)-adenine], for which the Ki is 200 nM at adenosine deaminase [2] (classical competitive inhibition, first bonding step, read-out: inhibition constant K1 of the initial bonding step); 1.7 nM at adenosine deaminase [2] (fixed enzyme-inhibitor complex after rearrangement, read-out: total inhibition constant); 4 nM at human ADA. The “inhibition of adenosine deaminase” value in the data set with adenosine deaminase [2] was “inhibiting effects both on adenosine deaminase and cGMP-stimulated PDE”. In addition, the IC50 (usually the point on the concentration scale where inhibition reaches its midpoint) in [3] was more than 100000 nM; at cGMP-stimulated PDE II [5] (human myocardium, 1 μM cAMP or cGMP substrate, 25° C., pH 7.5), 800 nM; on cGMP-stimulated PDE II [6] it was 2000 nM. In addition, the “doses having inhibiting effects on both enzymes (adenosine deaminase and cGMP-stimulated PDE)” value with adenosine deaminase [4] is “more than 10^-7 M”. The “inhibition of the cGMP-stimulated enzyme at the concentration at which inhibition of the PDE isotypes I, III and IV began” value at cGMP-stimulated PDE II [5] (human myocardium) is recorded as “more than 99%”. In addition, the “activity as inhibitor of PDE II compared with papaverine, on a molar basis” value on cGMP-stimulated PDE II [5] (in words) is “more active”. Further, the “concentrations of EHNA required to inhibit ADA in intact cells” value with ADA is on record as “much higher concentrations”.
`Nc1ncnc2c1ncn2[C@@H]1O[C@H](CO)[C@@H](O)[C@H]1O` [adenosine]: the Km (commonly the substrate concentration at which the rate is half of its maximum) in the data set with adenosine deaminase [2] (substrate of adenosine deaminase) was 20 µM.
As to `CCCOc1ccccc1-c1nc2nn[nH]c2c(=O)[nH]1` [2-o-propoxyphenyl-8-azapurine-6-one, 1,4-dihydro-5-(2-propoxyphenyl-7H-1,2,3-triazolo[4,5-d]pyrimidine-7-one)], the “inhibition of adenosine deaminase” value with adenosine deaminase [2] is on record as “does not inhibit the adenosine deaminase”. Moreover, the “solubility in acetone and ethanol and weakly basic solutions” value in data set [7] (acetone and ethanol and weakly basic solutions) is “dissolves in acetone and ethanol and weakly basic solutions”. For the same compound, in data set [7] (water), the solubility in water entry was “slightly soluble in water”. The same compound registered an IC50 with PDE I of 8000 nM. Further, the antiarrhythmic action entry with arrhythmias is “strong antiarrhythmic agents”. Besides, the “effect on cGMP content of the rat aorta” value in [8] is recorded as “raises the cGMP content”. The “acute oral LD50” value in the data set on mouse, rat and rabbit (in vivo, po) was 1,400-2,000 mg/kg. The toxicity result in the data set with mouse, rat and rabbit (in words) was “low toxicity”.
